Test results reported in paper PMC12114947, “Evaluation of Violacein Metabolic Stability and Metabolite Identification in Human, Mouse, and Rat Liver Microsomes” (Pharmaceutics, 2025).
≈ marks a conversion by molar mass, not a printed value.

Experiments:
[1] = buffer, 720 h, pH 5; cited from earlier work
[2] = test system: P. falciparum 3D7 strain (chloroquine-sensitive); design: method as in PMID 29642881, PMID 33689276; conditions: P. falciparum 3D7 (chloroquine-sensitive); cited from earlier work
Cryptococcus gastricus = test system: Cryptococcus gastricus; design: method as in PMID 26428920; conditions: cited from earlier work
[3] = Identification of violacein metabolites in RLMs by LC-QTOF; type: in vitro ADME, rat; conditions: all samples after 120 min of reaction, 105 µM violacein, 5 mg/mL protein
Protocol: The metabolism of violacein was investigated using HLMs and RLMs, by incubating the samples for 120 min under four conditions (n = 1): zero sample, phase I-only incubation, phase I and II incubation, and phase II-only incubation, as described by Godoi et al..
For all samples, 25 µL of the 843 µM violacein stock solution was added to propylene tubes and evaporated to dryness under a nitrogen stream. The dried residue was then reconstituted with 2 µL of methanol, ensuring that the final organic solvent concentration remained below 1% to minimize any potential impact on microsomal activity, as described by Jia et al..
To assess phase I metabolism, 148 μL of an NADPH-regenerating system containing 1.1 mM NADP+, 10 mM glucose-6-phosphate, 1 U/mL glucose-6-phosphate dehydrogenase, 5 mM sodium citrate, and 66 mM magnesium chloride in 100 mM phosphate buffer (pH 7.4) were added to the tubes. The solutions were pre-incubated for 5 min at 37 °C and 300 rpm in an MTC 100 thermo shaker incubator, and metabolic reactions were initiated by adding 50 μL of HLMs or RLMs (20 mg/mL), to yield final concentrations of 105 µM violacein and 5 mg of microsomal protein/mL. […]
The acquired chromatograms and mass spectra were analyzed using Insight Explore software version 1.0.0.0 (Shimadzu, Kyoto, Japan). […]

[4] = test system: experimental autoimmune encephalomyelitis (EAE); design: method as in PMID 25938431; conditions: EAE mice, three days of treatment, intraperitoneal 3.5 mg/kg; reduced from 4; cited from earlier work

For `O=C1NC(c2c[nH]c3ccc(O)cc23)=C/C1=C1\C(=O)Nc2ccccc21` [violacein], the “Residual pigment remaining unaltered” value [1] is listed as “more than 80%”, the IC50 [2] is listed as about 400 nM and the MIC (Cryptococcus gastricus) is listed as 32 µg/mL (≈ 93.2 µM). For the same molecule, the Violacein metabolized [3] was “Approximately 50%” and the Maximum clinical score [4] was 2.
